# Data taken from patent US11369565B2, “Amino-pyrimidine skeletal muscle modulators” (Cytokinetics, Inc., priority 2010, dated 2022).
# Test system: rabbit skeletal myofibrils (approximately 90% fast fibers)
# Assay: Activation of fast skeletal myofibrils (PUMA coupled-enzyme ATPase assay at pCa25)
# Format: biochemical
# Conditions: concentration at which the compound increased the enzymatic activity by 40%; calcium at pCa25; PM12 buffer pH 6.8
# Summary of the method: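 In pH 6.8 PM12 buffer (12 mM Pipes, 2 mM MgCl2, 1 mM DTT), ADP from myosin regenerated via pyruvate kinase/lactate dehydrogenase, with absorbance change at 340 nm from NADH oxidation as read-out. Calcium set at pCa25; Triton-washed rabbit skeletal myofibrils (about 90% fast fibres) used.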
row,SMILES,Mean AC1.4
1,COc1ccc(Cl)c(C(C)(C)Nc2ncc(-c3cccc(C(N)=O)c3)cn2)n1 [3-(2-{[1-(3-chloro-6-methoxy(2-pyridyl))-isopropyl]amino}pyrimidin-5-yl)benzamide],A (A=<1 uM)
2,CC(C)(Nc1ncc(-c2cccc(C(N)=O)c2)cn1)c1ncccc1F [3-(2-{[1-(3-fluoro(2-pyridyl))-isopropyl]amino}pyrimidin-5-yl)benzamide],B (B=1-10 uM)
3,CSc1ccccc1C(C)(C)Nc1ncc(-c2cccc(C(N)=O)c2)cn1 [3-(2-{[1-methyl-1-(2-methylthiophenyl)ethyl]amino}pyrimidin-5-yl)benzamide],A (A=<1 uM)
4,CSc1ccccc1C(C)(C)Nc1ncc(-c2cccc(C#N)c2)cn1 [3-(2-{[1-methyl-1-(2-methylthiophenyl)ethyl]amino}pyrimidin-5-yl)benzenecarbonitrile],A (A=<1 uM)
5,CSc1cccnc1C(C)(C)Nc1ncc(-c2cccc(C(N)=O)c2)cn1 [3-(2-{[1-methyl-1-(3-methylthio(2-pyridyl))ethyl]amino}pyrimidin-5-yl)benzamide],B (B=1-10 uM)
6,CSc1cccnc1C(C)(C)Nc1ncc(-c2cccc(C#N)c2)cn1 [3-(2-{[1-methyl-1-(3-methylthio(2-pyridyl))ethyl]amino}pyrimidin-5-yl)benzenecarbonitrile],B (B=1-10 uM)
7,CSc1ccc(C(C)(C)Nc2ncc(-c3cccc(C#N)c3)cn2)cc1 [3-(2-{[1-methyl-1-(4-methylthiophenyl)ethyl]amino}pyrimidin-5-yl)benzenecarbonitrile],D (D=>20 uM)
8,CC(C)(CNc1ncc(-c2cc(C(N)=O)ccc2F)cn1)c1ncccc1Cl [3-(2-{[2-(3-chloro(2-pyridyl))-2-methylpropyl]amino}pyrimidin-5-yl)-4-fluorobenzamide],A (A=<1 uM)
9,CC(C)(CNc1ncc(-c2cccc(C(N)=O)c2)cn1)c1ncccc1Cl [3-(2-{[2-(3-chloro(2-pyridyl))-2-methylpropyl]amino}pyrimidin-5-yl)benzamide],A (A=<1 uM)
10,CC(C)(CNc1ncc(-c2cccc(C(N)=O)c2)cn1)c1ncccc1F [3-(2-{[2-(3-fluoro(2-pyridyl))-2-methylpropyl]amino}pyrimidin-5-yl)benzamide],B (B=1-10 uM)
11,CC(C)(CNc1ncc(-c2cccc(C(N)=O)c2)cn1)c1ccc(F)cc1 [3-(2-{[2-(4-fluorophenyl)-2-methylpropyl]amino}pyrimidin-5-yl)benzamide],A (A=<1 uM)
12,NC(=O)c1cccc(-c2cnc(NCC3(c4ccccn4)CCC3)nc2)c1 [3-(2-{[(2 pyridylcyclobutyl)methyl]amino}pyrimidin-5-yl)benzamide],B (B=1-10 uM)
13,CC(C)(Nc1ncc(-c2cc(C(N)=O)ccc2F)cn1)c1ncccc1C(F)F [3-[2-({1-[3-(difluoromethyl)(2-pyridyl)]-isopropyl)amino)pyrimidin-5-yl]-4-fluorobenzamide],B (B=1-10 uM)
14,CC(C)(Nc1ncc(-c2cc(C(N)=O)ccc2F)cn1)c1cccc(OC(F)F)n1 [3-[2-({1-[6-(difitioromethoxy)(2-pyridyl)]-isopropyl}amino)pyrimidin-5-yl]-4-fluorobenzamide],A (A=<1 uM)
15,CC(C)(Nc1ncc(-c2cccc(C(N)=O)c2)cn1)c1cccc(OC(F)F)n1 [3-[2-({1-[6-(difluoromethoxy)(2-pyridyl)]-isopropyl}amino)pyrimidin-5-yl]benzamide],A (A=<1 uM)
16,CC(C)(Nc1ncc(-c2cccc(C(N)=O)c2)cn1)c1ccccc1S(C)(=O)=O [3-[2-({1-methyl-1-[2-(methylsulfonyl)phenyl]ethyl}amino)pyrimidin-5-yl]benzamide],D (D=>20 uM)
17,CC(C)(c1ncccc1S(C)(=O)=O)N(O)c1ncc(-c2cccc(C(N)=O)c2)cn1 [3-[2-({1-methyl-1-[3-(methylsulfonyl)(2-pyridyl)]ethyl}(hydroxyamino))pyrimidin-5-yl]benzamide],D (D=>20 uM)
